Broadly, the pIC50 is the IC50 on a negative log10 scale, so that one unit is a factor of ten.

The results in this text go back to patent US12528767B2, “HDAC6 inhibitors and uses thereof” (Eikonizo Therapeutics, Inc., priority 2019, dated 2026).

The target of one assay is T1, Full length Human HDAC6 (Homo sapiens, UniProt Q9UBN7).
T1 sequence (Q9UBN7 1-1215): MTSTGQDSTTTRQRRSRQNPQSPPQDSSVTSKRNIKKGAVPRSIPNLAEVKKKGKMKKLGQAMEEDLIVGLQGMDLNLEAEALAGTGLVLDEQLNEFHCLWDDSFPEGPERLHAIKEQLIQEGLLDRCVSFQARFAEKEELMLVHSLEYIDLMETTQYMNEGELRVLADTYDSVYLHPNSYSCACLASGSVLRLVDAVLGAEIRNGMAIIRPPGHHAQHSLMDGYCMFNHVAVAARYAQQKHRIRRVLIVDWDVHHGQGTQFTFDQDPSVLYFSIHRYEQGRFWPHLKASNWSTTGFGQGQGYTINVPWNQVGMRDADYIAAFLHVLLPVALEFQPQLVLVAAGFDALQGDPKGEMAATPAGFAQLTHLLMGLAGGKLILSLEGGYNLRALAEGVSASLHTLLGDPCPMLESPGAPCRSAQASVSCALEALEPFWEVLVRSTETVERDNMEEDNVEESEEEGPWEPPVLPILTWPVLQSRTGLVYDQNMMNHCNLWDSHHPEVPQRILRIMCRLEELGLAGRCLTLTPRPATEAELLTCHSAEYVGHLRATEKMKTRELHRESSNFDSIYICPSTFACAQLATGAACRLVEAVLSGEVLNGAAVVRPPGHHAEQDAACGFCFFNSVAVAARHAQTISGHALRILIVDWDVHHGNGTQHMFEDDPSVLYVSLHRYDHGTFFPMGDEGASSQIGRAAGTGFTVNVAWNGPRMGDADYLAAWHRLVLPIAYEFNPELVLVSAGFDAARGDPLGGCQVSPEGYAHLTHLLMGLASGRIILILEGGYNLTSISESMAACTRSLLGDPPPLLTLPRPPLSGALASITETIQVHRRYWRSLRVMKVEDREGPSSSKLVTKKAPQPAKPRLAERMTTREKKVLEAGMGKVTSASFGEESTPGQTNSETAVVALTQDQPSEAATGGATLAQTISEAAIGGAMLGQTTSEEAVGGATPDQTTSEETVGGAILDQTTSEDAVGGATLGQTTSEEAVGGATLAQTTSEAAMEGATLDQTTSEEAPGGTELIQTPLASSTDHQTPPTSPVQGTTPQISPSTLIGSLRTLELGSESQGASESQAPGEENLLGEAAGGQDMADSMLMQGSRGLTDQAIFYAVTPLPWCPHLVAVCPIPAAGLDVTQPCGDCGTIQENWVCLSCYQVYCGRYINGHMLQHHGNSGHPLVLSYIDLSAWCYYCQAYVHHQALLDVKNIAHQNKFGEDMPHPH
Conditions: for Selectivity (6 v 8) (fold): ratio of HDAC8 IC50/HDAC6 IC50.

A further assay concerns the target T2, Human HDAC7 aa 518-end (Homo sapiens, UniProt Q8WUI4).
T2 sequence (Q8WUI4 518-952 limits assumed): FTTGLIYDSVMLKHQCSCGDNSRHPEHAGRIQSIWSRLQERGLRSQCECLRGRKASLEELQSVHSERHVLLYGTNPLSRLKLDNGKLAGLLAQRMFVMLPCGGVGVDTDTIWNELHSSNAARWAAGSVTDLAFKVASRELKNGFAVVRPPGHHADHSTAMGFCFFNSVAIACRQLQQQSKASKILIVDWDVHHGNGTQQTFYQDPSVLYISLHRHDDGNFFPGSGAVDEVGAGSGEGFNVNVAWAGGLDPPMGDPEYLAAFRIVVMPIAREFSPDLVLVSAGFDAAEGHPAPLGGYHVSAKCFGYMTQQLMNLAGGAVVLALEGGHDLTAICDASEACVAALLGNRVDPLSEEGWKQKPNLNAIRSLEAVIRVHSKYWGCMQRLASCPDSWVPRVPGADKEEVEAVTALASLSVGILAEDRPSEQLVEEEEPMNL

The next assay addresses T3, Full length Human HDAC8 (Homo sapiens, UniProt Q9BY41).
T3 sequence (Q9BY41 1-377): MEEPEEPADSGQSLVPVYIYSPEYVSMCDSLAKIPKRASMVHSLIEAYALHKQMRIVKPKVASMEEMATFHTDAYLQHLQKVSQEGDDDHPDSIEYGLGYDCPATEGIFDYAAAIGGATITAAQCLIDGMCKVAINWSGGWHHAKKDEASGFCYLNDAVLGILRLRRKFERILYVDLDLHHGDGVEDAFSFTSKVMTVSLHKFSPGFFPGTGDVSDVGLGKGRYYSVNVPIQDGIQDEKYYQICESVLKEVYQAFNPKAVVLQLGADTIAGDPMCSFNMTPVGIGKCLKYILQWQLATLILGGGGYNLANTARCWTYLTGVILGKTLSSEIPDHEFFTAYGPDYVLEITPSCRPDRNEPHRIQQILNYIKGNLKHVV

The next assay addresses T4, Full length Human HDAC10 (Homo sapiens, UniProt Q969S8).
T4 sequence (Q969S8 1-669): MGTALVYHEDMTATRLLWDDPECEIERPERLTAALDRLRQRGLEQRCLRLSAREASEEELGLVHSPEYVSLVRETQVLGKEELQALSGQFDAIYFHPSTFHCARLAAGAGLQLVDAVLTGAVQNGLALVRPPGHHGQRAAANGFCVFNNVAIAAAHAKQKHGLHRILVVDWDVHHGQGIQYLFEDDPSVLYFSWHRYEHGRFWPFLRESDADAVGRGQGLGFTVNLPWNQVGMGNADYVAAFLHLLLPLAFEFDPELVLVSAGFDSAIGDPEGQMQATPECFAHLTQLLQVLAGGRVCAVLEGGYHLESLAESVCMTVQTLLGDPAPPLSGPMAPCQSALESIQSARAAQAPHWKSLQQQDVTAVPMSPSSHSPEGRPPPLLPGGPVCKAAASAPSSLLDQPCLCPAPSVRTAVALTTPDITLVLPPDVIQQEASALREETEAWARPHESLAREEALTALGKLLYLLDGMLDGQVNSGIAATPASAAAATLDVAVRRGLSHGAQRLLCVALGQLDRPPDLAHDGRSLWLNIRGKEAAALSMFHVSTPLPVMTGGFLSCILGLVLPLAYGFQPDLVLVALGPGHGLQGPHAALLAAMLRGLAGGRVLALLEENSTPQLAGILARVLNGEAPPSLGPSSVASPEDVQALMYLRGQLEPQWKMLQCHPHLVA

Setting [1] is: read-out: In vitro enzymatic IC50, HDAC Paralog 8, Table 2.

Structures are written as SMILES. pIC50: −log10 of the molar value. Where two headings read alike, the source gives them in different places.

Take `O=C(NO)c1cc(F)c2c(c1)CCN([C@@H]1CCC3(CCCCC3)C1)C2` (single isomer, unassigned) [compound 110]: the pIC50 at Full length Human HDAC6 is 7.00 to 9.00; against Human HDAC7 aa 518-end, 4.00 to 5.00; against Full length Human HDAC8, 5.00 to 6.00; at Full length Human HDAC8 (setting [1]), 5.00 to 6.00; on Full length Human HDAC10, 4.00 to 5.00.

Consider `O=C(NO)c1cc(F)c2c(c1)CC1CCCN1C2` (single isomer, unassigned) [compound 120], for which the negative-log IC50 (pIC50) against Full length Human HDAC6 was 7.00 to 9.00; on Full length Human HDAC6 (read-out: In vitro enzymatic IC50, HDAC Paralog 6, Table 2), 7.00 to 9.00; against Human HDAC7 aa 518-end, 5.00 to 6.00; at Full length Human HDAC8 it was 5.00 to 6.00; at Full length Human HDAC8 (setting [1]), 5.00 to 6.00; against Full length Human HDAC10, below 4.00.

Turning to `CC1(C)C[C@@H]2Cc3c(F)cc(C(=O)NO)cc3CN2C1` (single isomer, unassigned) [compound 127], the pIC50 at Full length Human HDAC6 was 7.00 to 9.00; against Human HDAC7 aa 518-end, 5.00 to 6.00; at Full length Human HDAC8, 5.00 to 6.00; on Full length Human HDAC10 it was below 4.00.

For the compound `O=C(NO)c1ccc(CN2CC3(CCCCC3)C2)c(F)c1` [compound 70], the pIC50 against Full length Human HDAC6 was 7.00 to 9.00; against Full length Human HDAC8, 5.00 to 6.00. For the same compound, the “Selectivity (6 v 8) (fold)” value on Full length Human HDAC6 (Table 1, number) is 16 fold; at Full length Human HDAC6 (Table 1, range class) it was “III (III: >10-100)”.

With `O=C(NO)c1ccc(CN2CC3(CCOCC3)C2)c(F)c1` [compound 71], the negative logarithm of the IC50 (pIC50) against Full length Human HDAC6 was 7.00 to 9.00; against Full length Human HDAC8, 5.00 to 6.00. The “Selectivity (6 v 8) (fold)” value at Full length Human HDAC6 (Table 1, number) is 33.4 fold; on Full length Human HDAC6 (Table 1, range class), “III (III: >10-100)”.

As for `O=C(NO)c1ccc(CN2CC3(COC3)C2)c(F)c1` [compound 72], the results for the pIC50 at Full length Human HDAC6 and against Full length Human HDAC8 were 7.00 to 9.00 and 6.00 to 7.00, respectively. The “Selectivity (6 v 8) (fold)” value is given as 44.8 fold at Full length Human HDAC6 (Table 1, number) and “III (III: >10-100)” at Full length Human HDAC6 (Table 1, range class).

As to `O=C(NO)c1ccc(CN2CCC3(CCCC3)C2)c(F)c1` [compound 73], the pIC50 against Full length Human HDAC6 was 7.00 to 9.00; against Full length Human HDAC8, 5.00 to 6.00. Further, the “Selectivity (6 v 8) (fold)” value is listed as 35.8 fold at Full length Human HDAC6 (Table 1, number) and “III (III: >10-100)” at Full length Human HDAC6 (Table 1, range class).

Regarding `O=C(NO)c1ccc(CN2CCCC3(C2)C2CC4CC(C2)CC3C4)c(F)c1` (centres unmarked) [compound 77], the negative-log IC50 (pIC50) at Full length Human HDAC6 was 7.00 to 9.00; against Full length Human HDAC8 it was 5.00 to 6.00.

Regarding `O=C(NO)c1cc(F)c2c(c1)CN(CC13CC4CC(CC(C4)C1)C3)CC2` [compound 113, 2-(((3r,5r,7r)-adamantan-1-yl)methyl)-5-fluoro-N-hydroxy-1,2,3,4-tetrahydroisoquinoline-7-carboxamide], the pIC50 against Full length Human HDAC6 was 7.00 to 9.00; against Full length Human HDAC8, 5.00 to 6.00.

For `O=C(NO)c1cc(F)c2c(c1)CN(Cc1ccccc1)CC2` [compound 114, 2-benzyl-5-fluoro-N-hydroxy-1,2,3,4-tetrahydroisoquinoline-7-carboxamide], the figures for the pIC50 against Full length Human HDAC6 and against Full length Human HDAC8 were 7.00 to 9.00 and 6.00 to 7.00, respectively. In addition, the “Selectivity (6 v 8) (fold)” value at Full length Human HDAC6 (Table 1, number) is recorded as 10.3 fold; on Full length Human HDAC6 (Table 1, range class) it was “III (III: >10-100)”.

Regarding `O=C(NO)c1cc(F)c2c(c1)CN(CC1COC1)CC2` [compound 115, 5-fluoro-N-hydroxy-2-(oxetan-3-ylmethyl)-1,2,3,4-tetrahydroisoquinoline-7-carboxamide], the pIC50 at Full length Human HDAC6 was 6.00 to 7.00; at Full length Human HDAC8 it was 5.00 to 6.00.

For `CN1Cc2ccc(C(=O)NO)cc2CN1Cc1ccccc1` [compound 117, 3-benzyl-N-hydroxy-2-methyl-1,2,3,4-tetrahydrophthalazine-6-carboxamide], the values for the pIC50 at Full length Human HDAC6 and against Full length Human HDAC8 were 7.00 to 9.00 and 6.00 to 7.00, respectively. For the same compound, the “Selectivity (6 v 8) (fold)” value on Full length Human HDAC6 (Table 1, number) was 7.9 fold; on Full length Human HDAC6 (Table 1, range class), “II (II: >1-10)”.

Turning to `CN1Cc2cc(C(=O)NO)ccc2CN1Cc1ccccc1` [compound 118, 2-benzyl-N-hydroxy-3-methyl-1,2,3,4-tetrahydrophthalazine-6-carboxamide], the negative-log IC50 (pIC50) against Full length Human HDAC6 was 7.00 to 9.00; at Full length Human HDAC8, 5.00 to 6.00.

On to `O=C(NO)c1cc(F)c2c(c1)CCn1cccc1-2` [compound 147, 10-fluoro-N-hydroxy-5,6-dihydropyrrolo[2,1-a] isoquinoline-8-carboxamide], for which the pIC50 was 7.00 to 9.00 against Full length Human HDAC6 and 5.00 to 6.00 at Full length Human HDAC8.

For `Cc1ccn2c1-c1c(F)cc(C(=O)NO)cc1CC2` [compound 155, 10-fluoro-N-hydroxy-1-methyl-5,6-dihydropyrrolo[2,1-a] isoquinoline-8-carboxamide], the pIC50 is 7.00 to 9.00 against Full length Human HDAC6 and 6.00 to 7.00 against Full length Human HDAC8. For the same compound, the “Selectivity (6 v 8) (fold)” value on Full length Human HDAC6 (Table 1, number) was 6.1 fold; at Full length Human HDAC6 (Table 1, range class), “II (II: >1-10)”.

As for `CN1Cc2cc(C(=O)NO)ccc2-c2cccn21` [compound 162, N-hydroxy-5-methyl-5,6-dihydropyrrolo[2,1-a]phthalazine-8-carboxamide], the negative-log IC50 (pIC50) was 6.00 to 7.00 against Full length Human HDAC6 and 5.00 to 6.00 against Full length Human HDAC8. Also, the “Selectivity (6 v 8) (fold)” value at Full length Human HDAC6 (Table 1, number) is reported as 2.8 fold; on Full length Human HDAC6 (Table 1, range class) it was “II (II: >1-10)”.

Consider `O=C(NO)c1ccc2c(c1)Cn1cccc1-2` [compound 166, N-hydroxy-5H-pyrrolo[2,1-a]isoindole-7-carboxamide], for which the pIC50 against Full length Human HDAC6 was 6.00 to 7.00; on Full length Human HDAC8 it was 5.00 to 6.00. The “Selectivity (6 v 8) (fold)” value is 14 fold on Full length Human HDAC6 (Table 1, number) and “III (III: >10-100)” on Full length Human HDAC6 (Table 1, range class).

Regarding `O=C(NO)c1ccc(CN2CCC3(CC2)C2CC4CC(C2)CC3C4)c(F)c1` [compound 167, 3-fluoro-N-hydroxy-4-(((1r,3r,5r,7r)-spiro[adamantane-2,4′-piperidin]-1′-yl)methyl)benzamide], the values for the negative-log IC50 (pIC50) against Full length Human HDAC6 and on Full length Human HDAC8 were 7.00 to 9.00 and 5.00 to 6.00, respectively. In addition, the “Selectivity (6 v 8) (fold)” value is on record as 41.9 fold on Full length Human HDAC6 (Table 1, number) and “III (III: >10-100)” on Full length Human HDAC6 (Table 1, range class).
